Assay results as given in US9441012B2, “Fluorinated epoxyketone-based compounds and uses thereof as proteasome inhibitors” (FLUORINOV PHARMA INC., priority 2012, dated 2016).

Legend:
[1] = system: NCI-H460; assay: NCI 60 human tumor cell line screen (SRB); assay type: cell-based; details: NCI-H460 (Non-Small Cell Lung Cancer); 48 h
[2] = system: T-47D; assay: NCI 60 human tumor cell line screen (SRB); assay type: cell-based; details: T-47D (Breast Cancer); 48 h
[3] = system: CAKI-1; assay: NCI 60 human tumor cell line screen (SRB); assay type: cell-based; details: CAKI-1 (Renal Cancer); 48 h
[4] = system: SK-MEL-2; assay: NCI 60 human tumor cell line screen (SRB); assay type: cell-based; details: SK-MEL-2 (Melanoma); 48 h
[5] = system: chymotrypsin-like (CT-L) proteasome activity, KMS-11; assay: Proteasome enzymatic activity (tumor cell lysates); assay type: biochemical, human; details: KMS-11 cell lysate; mean ± standard deviation
Procedure: Cells were harvested by centrifugation at 1,200 rpm at room temperature. Cell pellets were washed with PBS and lysed with assay lysis buffer (50 mM HEPES (N-2-hydroxyethylpiperazine-N′-2-ethanesulfonic acid), pH 7.5; 150 mM NaCl; 1% Triton X-100; 2 mM ATP). Cell lysates were incubated on ice for 30 minutes, mixed by vortex every 5 minutes, and then centrifuged at 12,000 g for 10 minutes. The supernatant was transferred to a 96-well plate. For each assay, 10 μg of total protein were incubated for 1 hour at 37° C. with increasing concentrations (1 nM to 10 μM) of test compound diluted in assay buffer (50 mM Tris-HCl (tris(hydroxymethyl)aminomethane-HCl), pH 7.5; 150 mM NaCl). DMSO alone was used as a control in every assay plate. After incubation, a specific fluorogenic proteasome substrate was added to each assay reaction at a final concentration of 40 μM in a total volume of 100 μL. N-Succinyl-Leu-Leu-Val-Tyr-7-amino-4-methylcoumarin (Suc-Leu-Leu-Val-Tyr-AMC) was used for measuring chymotrypsin-like (CT-L) activity, t-butoxycarbonyl-Leu-Arg-Arg-7-amino-4-methylcoumarin (Boc-Leu-Arg-Arg-AMC) for trypsin-like (T-L) activity, and benzyloxycarbonyl-L-leucyl-L-leucyl-L-glutamyl-7-amino-4-methylcoumarin (Z-Leu-Leu-Glu-AMC) for caspase-like (C-L) activity. The excitation wavelength was set at 360 nm and the fluorescence emission wavelength of AMC was detected at 460 nm. The fluorescence of free AMC released during the enzymatic reaction was measured with a SpectraMax M5 fluorescent spectrophotometric plate reader (Molecular Devices, Sunnyvale, Calif.). AMC release rate was measured at 37° C. in a kinetic mode, recording every 5 minutes for 30 minutes. Experiments were performed in triplicate and repeated at least twice.
(§1) Table 9 summarizes data obtained for representative compounds of Formula I for cell viability and CT-L proteasome activity using OCI-AML-2 and KMS-11 cell lines.

[6] = system: SR; assay: NCI 60 human tumor cell line screen (SRB); assay type: cell-based; details: SR (Leukemia); 48 h
[7] = system: OCI-AML-2; assay: Cell viability assay (MTS); assay type: cell-based; details: Homo sapiens, OCI-AML2, 72 hours, mean ± standard deviation
Procedure: (§2) Human multiple myeloma cell lines 8226, H929, JJN3, KMH11, KMS11, KMS18, LP1, MM1S, OPM2 and U266 were grown in Iscove modified Dulbecco's medium (IMDM). Human leukemia cell lines K562, OCI-AML2 and U937 were cultured in RPMI-1640 medium. Primary peripheral blood mononuclear cells were isolated from multiple myeloma patients by Ficoll density gradient centrifugation and bone marrow aspirates were obtained from multiple myeloma patients at the Princess Margaret Cancer Centre of the University Health Network (UHN; Toronto, ON, Canada). Primary cells were cultured in IMDM. The collection and use of human tissue for this study were approved by the UHN institutional ethics review board. All cell culture media were obtained from the Ontario Cancer Institute Tissue Culture Media Facility (Toronto, ON, Canada) and were supplemented with 10% fetal calf serum, […] (Hyclone, Logan, Utah). All cells were grown in a humidified incubator at 37° C. with 5% CO2.
(§3) Cellular viability was primarily assessed by 3-(4,5-dimethylthiazol-2-yl)-5-(3-carboxymethoxyphenyl)-2-(4-sulfophenyl)-2H-tetrazolium (MTS) assay according to the manufacturer's instructions (Promega; Madison, Wis.). Cells were first seeded at a density of 10,000 cells per well in tissue culture-treated 96-well plates. Two hours after seeding, cells were treated with compounds for 72 hours at concentrations as indicated. As a control, cells were treated with DMSO alone in every assay plate. Following treatment and the MTS assay, cell viability was independently confirmed by reading the optical density (O.D.) at 490 nm and by exclusion of trypan blue stain (Invitrogen; Burlington, ON, Canada). The viability of primary mononuclear cells was determined by staining with Annexin V.
as §1

[8] = system: KMS-11; assay: Cell viability assay (MTS); assay type: cell-based; details: Homo sapiens, 72 hours, mean ± standard deviation
Procedure: as §2, §3, §1

[9] = system: high molecular weight ubiquitylated proteins in LP1 cells; assay: Immunoblotting assay of ubiquitylated proteins; assay type: cell-based; details: Homo sapiens, LP-1, read-out: IC50 (increase of ubiquitylated proteins, immunoblot)
Procedure: Whole cell lysates were prepared from LP1 cells in RIPA lysis buffer. Anti-ubiquitin antibody was purchased from Cell Signaling Technology Inc, (Danvers, Mass.) and anti-tubulin antibody was purchased from Sigma-Aldrich (St. Louis, Mo.). Secondary horseradish peroxidase-conjugated goat anti-mouse or anti-rabbit IgG was purchased from Amersham Bioscience (Piscataway, N.J.). Detection was performed using an enhanced chemiluminescence kit from Pierce, (Rockford, Ill.).

[10] = system: CCRF-CEM; assay: NCI 60 human tumor cell line screen (SRB); assay type: cell-based; details: CCRF-CEM (Leukemia); 48 h

SMILES | Log10GI50 [1] | Log10LC50 [1] | Log10TGI50 [1] | Log10GI50 [2] | Log10TGI50 [2] | Log10GI50 [3] | Log10LC50 [3] | Log10TGI50 [3] | Log10GI50 [4] | Log10LC50 [4] | Log10TGI50 [4] | IC50 [5] [µM] | Log10GI50 [6] | Log10LC50 [6] | Log10TGI50 [6] | IC50 [7] [µM] | IC50 [8] [µM] | IC50 [9] [µM] | Log10GI50 [10] | Log10LC50 [10] | further results
C[C@]1(C(=O)[C@H](Cc2ccccc2)NC(=O)[C@H](COC(F)F)NC(=O)[C@H](COC(F)F)NC(=O)CN2CCOCC2)CO1 [Example 26, (S)-N-{(S)-1-[(S)-1-Benzyl-2-((R)-2-methyl-oxiranyl)-2-oxo-ethylcarbamoyl]-2-difluoromethoxyethyl}-3-difluoromethoxy-2-(2-morpholin-4-yl-acetylamino)-propio-namide] | −7.21 | −4.13 | −6.43 | −7.78 | −7.46 | −6.72 | >−4.00 | −6.09 | −7.54 | −5.46 | −7.03 | 0.174 ± 0.434 | −7.71 | >−4.00 | >−4.00 | 0.223 ± 0.0103 | 0.0997 ± 0.0177 | – | – | – | –
CC(C)C[C@H](NC(=O)[C@H](Cc1ccccc1)NC(=O)[C@H](COC(F)F)NC(=O)CN1CCOCC1)C(=O)[C@@]1(C)CO1 [Example 25, (2S)-2-[[(2S)-3-(difluoromethoxy)-2-[(2-morpholinoacetyl)amino]propanoyl]amino]-N-[(1S)-3-methyl-1-[(2R)-2-methyloxirane-2-carbonyl]butyl]-3-phenyl-propanamide] | −7.21 | −4.13 | −6.43 | −7.78 | −7.46 | −6.72 | >−4.00 | −6.09 | −7.54 | −5.46 | −7.03 | – | −7.71 | >−4.00 | >−4.00 | 0.0556 ± 0.0192 | 0.0395 ± 0.00745 | < 0.05 | – | – | –
C[C@]1(C(=O)[C@H](Cc2ccccc2)NC(=O)[C@H](Cc2ccccc2)NC(=O)[C@H](COC(F)F)NC(=O)CN2CCOCC2)CO1 [Example 29] | −6.49 | >−4.00 | −5.87 | −7.16 | −6.62 | −6.56 | >−4.00 | −5.94 | −7.19 | >−4.00 | −6.02 | 0.135 ± 0.0123 | −7.69 | >−4.00 | −4.36 | 0.0759 ± 0.015 | 0.0604 ± 0.0112 | – | −7.62 | >−4.00 | Log10TGI50 [10]: >−4.00
Cc1ncc(C(=O)N[C@@H](COC(F)F)C(=O)N[C@@H](COC(F)F)C(=O)N[C@@H](Cc2ccccc2)C(=O)[C@@]2(C)CO2)s1 [Example 1, 2-methyl-thiazole-5-carboxylic acid ((S)-1-{(S)-1-[(S)-1-benzyl-2-((R)-2-methyloxiranyl)-2-oxo-ethylcarbamoyl]-2-difluoromethoxyethylcarbamoyl}-2-difluoromethoxyethyl)-amide] | −6.48 | −5.12 | −5.84 | −6.59 | >−4.00 | −6.40 | >−4.00 | −5.28 | – | – | – | 0.0296 ± 0.00369 | −7.30 | >−4.00 | >−4.00 | 0.109 ± 0.0253 | 0.0309 ± 0.0107 | < 0.05 | −7.26 | >−4.00 | Log10TGI50 [10]: >−4.00
